In brackets after ≈: the same amount, converted by molar mass.
Columns and labels:
E. Coli RNAP = E. Coli RNAP (Escherichia coli, UniProt P0A8T7+P0A8V2); assay: In vitro activity against E. Coli RNAP; type: biochemical
Description: (§1) These properties can be determined according to techniques that are well known in the art.

S. aureus membrane = assay: In vitro activity in depolarization of S. aureus membrane; type: cell-based; settings: read-out: DEP (IC50)
Description: as §1

[1] = tested on: mammalian_red blood cell membrane; assay: In vitro mammalian red blood cell membrane lysis activity; type: cell-based; settings: Active or inactive at 100 μM
Description: as §1

[2] = tested on: human embryonic kidney 293 cells; assay: in vitro toxicities against human embryonic kidney 293 cells; type: cell-based; settings: human embryonic kidney 293 cells
Description: as §1

[3] = tested on: human peripheral blood cells; assay: in vitro toxicities human peripheral blood cells; type: cell-based; settings: human peripheral blood cells
Description: as §1

[4] = aqueous solubility at pH 7.4; type: physicochemical; settings: aqueous solubility at pH 7.4 (water with 2% DMSO)
Description: as §1

S1 = assay: MIC determination (bacteria), strain S1; type: cell-based, S. aureus; settings: Table 1; 2-fold broth dilution
Procedure: (§2) MIC determination (bacteria); MICs were determined based on Clinical and Laboratory Standards Institute (CLSI) methodology (Methods for dilution antimicrobial susceptibility tests for bacteria that grow aerobically; Approved Standard—seventh edition. 2006, M7-A7, CLSI, Wayne Pa.) by a 2-fold broth dilution technique in Mueller Hinton (pH7.4 Biorad). For S. pneumoniae, the medium was supplemented with 2.5% laked horse blood. For H. influenzae, the medium was haemophilus test medium (H.T.M.). Overnight cultures were diluted to obtain the final inoculum of 10^5 cfu/well. Incubation was 37° C. overnight in ambient air. The MIC was defined as the lowest concentration which inhibited all visual growth and expressed in μg/ml. For each bacterial species, all of the molecules were tested in the same experiment in order to give a head-to-head comparison.

S26 = assay: MIC determination (bacteria), strain S26; type: cell-based, S. aureus; settings: Table 1; 2-fold broth dilution
Procedure: as §2

S4 = assay: MIC determination (bacteria), strain S4; type: cell-based, S. aureus; settings: Table 1; 2-fold broth dilution
Procedure: as §2

[5] = tested on: S2 (S. aureus 2, MRSA in vivo); assay: MIC determination (bacteria), strain S2; type: cell-based; settings: Table 1; 2-fold broth dilution
Procedure: as §2

E1 = assay: MIC determination (bacteria), strain E1; type: cell-based, enterococcus; settings: Table 1; 2-fold broth dilution
Procedure: as §2

E2 = assay: MIC determination (bacteria), strain E2; type: cell-based, enterococcus; settings: Table 1; 2-fold broth dilution
Procedure: as §2

P1 = assay: MIC determination (bacteria), strain P1; type: cell-based, S. pneumoniae; settings: Table 1; 2-fold broth dilution
Procedure: as §2

P9 = assay: MIC determination (bacteria), strain P9; type: cell-based, S. pneumoniae; settings: Table 1; 2-fold broth dilution
Procedure: as §2

P9B = assay: MIC determination (bacteria), strain P9B; type: cell-based, S. pneumoniae; settings: Table 1; 2-fold broth dilution
Procedure: as §2

H3 = assay: MIC determination (bacteria), strain H3; type: cell-based, H. influenzae; settings: Table 1; haemophilus test medium
Procedure: as §2

H4 = assay: MIC determination (bacteria), strain H4; type: cell-based, H. influenzae; settings: Table 1; haemophilus test medium
Procedure: as §2

Sequence of E. Coli RNAP (P0A8V2 whole entry): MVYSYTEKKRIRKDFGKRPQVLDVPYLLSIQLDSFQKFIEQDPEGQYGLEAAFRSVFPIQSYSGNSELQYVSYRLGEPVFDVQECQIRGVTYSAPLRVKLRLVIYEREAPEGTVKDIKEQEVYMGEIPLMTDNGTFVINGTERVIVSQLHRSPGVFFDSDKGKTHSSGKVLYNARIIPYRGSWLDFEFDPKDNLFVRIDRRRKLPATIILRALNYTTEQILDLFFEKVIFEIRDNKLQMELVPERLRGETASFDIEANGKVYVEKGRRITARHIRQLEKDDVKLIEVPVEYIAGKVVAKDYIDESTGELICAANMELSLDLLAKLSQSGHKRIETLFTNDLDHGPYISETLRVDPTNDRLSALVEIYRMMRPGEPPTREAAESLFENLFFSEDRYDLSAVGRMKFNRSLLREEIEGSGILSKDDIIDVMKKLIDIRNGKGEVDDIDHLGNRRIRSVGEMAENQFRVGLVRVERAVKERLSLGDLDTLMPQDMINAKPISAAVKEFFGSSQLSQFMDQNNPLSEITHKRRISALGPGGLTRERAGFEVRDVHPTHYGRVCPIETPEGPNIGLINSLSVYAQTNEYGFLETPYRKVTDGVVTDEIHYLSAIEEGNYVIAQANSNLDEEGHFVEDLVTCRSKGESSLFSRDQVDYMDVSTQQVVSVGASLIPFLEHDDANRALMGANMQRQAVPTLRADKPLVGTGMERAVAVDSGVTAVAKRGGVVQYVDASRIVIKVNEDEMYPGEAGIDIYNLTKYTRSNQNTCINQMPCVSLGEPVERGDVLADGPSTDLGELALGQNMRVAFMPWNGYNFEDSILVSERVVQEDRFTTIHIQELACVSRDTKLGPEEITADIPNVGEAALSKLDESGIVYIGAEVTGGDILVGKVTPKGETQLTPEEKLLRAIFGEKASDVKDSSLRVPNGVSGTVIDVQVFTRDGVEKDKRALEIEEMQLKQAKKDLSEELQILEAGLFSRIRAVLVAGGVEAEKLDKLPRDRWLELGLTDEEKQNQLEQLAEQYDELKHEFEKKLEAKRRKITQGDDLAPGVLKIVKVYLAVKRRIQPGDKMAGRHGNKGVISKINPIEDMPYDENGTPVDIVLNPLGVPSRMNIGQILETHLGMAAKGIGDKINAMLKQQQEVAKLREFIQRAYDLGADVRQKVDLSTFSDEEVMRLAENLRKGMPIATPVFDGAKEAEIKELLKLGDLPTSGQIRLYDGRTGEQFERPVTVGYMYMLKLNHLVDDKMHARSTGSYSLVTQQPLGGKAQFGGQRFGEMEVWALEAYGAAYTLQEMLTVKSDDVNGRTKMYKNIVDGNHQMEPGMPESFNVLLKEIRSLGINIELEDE
Sequence of E. Coli RNAP (P0A8T7 whole entry): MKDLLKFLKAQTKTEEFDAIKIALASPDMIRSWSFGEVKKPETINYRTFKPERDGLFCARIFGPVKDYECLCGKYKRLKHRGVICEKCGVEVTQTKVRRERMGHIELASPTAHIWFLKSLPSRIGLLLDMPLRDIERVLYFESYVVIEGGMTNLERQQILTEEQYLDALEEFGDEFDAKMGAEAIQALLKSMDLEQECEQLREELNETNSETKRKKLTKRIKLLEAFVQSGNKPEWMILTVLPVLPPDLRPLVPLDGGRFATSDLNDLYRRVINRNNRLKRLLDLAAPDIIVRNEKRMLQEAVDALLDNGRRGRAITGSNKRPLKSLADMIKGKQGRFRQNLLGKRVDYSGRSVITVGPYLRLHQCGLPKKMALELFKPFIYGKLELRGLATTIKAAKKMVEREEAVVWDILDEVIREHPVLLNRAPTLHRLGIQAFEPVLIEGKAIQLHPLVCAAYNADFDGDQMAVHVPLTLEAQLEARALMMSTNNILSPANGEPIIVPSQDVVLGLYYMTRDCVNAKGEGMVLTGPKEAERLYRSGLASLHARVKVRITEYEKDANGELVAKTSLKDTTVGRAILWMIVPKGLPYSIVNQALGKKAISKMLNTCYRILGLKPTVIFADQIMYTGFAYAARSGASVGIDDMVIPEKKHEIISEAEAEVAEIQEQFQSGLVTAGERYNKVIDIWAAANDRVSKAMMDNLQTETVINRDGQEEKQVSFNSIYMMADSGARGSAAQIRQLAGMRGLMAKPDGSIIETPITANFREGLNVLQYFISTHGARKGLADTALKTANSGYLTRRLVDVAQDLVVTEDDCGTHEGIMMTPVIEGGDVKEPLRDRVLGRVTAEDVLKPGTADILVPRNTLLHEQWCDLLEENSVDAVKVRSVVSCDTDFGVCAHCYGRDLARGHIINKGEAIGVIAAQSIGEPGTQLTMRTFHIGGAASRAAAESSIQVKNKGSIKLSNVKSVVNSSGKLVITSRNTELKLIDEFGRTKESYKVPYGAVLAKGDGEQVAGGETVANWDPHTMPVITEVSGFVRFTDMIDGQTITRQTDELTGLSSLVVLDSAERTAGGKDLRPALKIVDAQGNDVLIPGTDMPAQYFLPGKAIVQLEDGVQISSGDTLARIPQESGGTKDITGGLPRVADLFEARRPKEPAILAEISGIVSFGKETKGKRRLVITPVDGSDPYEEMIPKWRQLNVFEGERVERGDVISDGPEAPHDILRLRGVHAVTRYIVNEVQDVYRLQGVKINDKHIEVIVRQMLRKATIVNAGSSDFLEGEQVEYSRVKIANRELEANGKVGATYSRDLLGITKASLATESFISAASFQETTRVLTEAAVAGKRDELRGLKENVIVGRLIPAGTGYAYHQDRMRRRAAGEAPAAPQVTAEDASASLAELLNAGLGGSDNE
Sequence of E. Coli RNAP (P0A7Z4 whole entry partner): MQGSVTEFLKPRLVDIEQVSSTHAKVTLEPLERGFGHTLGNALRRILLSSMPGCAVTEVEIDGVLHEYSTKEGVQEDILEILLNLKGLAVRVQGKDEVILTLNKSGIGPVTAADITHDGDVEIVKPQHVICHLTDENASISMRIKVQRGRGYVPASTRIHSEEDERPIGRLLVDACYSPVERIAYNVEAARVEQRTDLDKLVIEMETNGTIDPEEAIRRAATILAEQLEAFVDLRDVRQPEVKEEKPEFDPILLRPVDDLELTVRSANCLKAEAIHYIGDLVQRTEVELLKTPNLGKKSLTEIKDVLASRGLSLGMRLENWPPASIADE
Sequence of E. Coli RNAP (P0A800 whole entry partner): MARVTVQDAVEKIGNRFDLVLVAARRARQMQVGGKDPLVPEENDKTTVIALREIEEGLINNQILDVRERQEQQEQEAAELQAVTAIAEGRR

Compound | IC50 (E. Coli RNAP) [µM] | IC50 (S. aureus membrane) [µM] | RBC membrane lysis activity (active/inactive) [1] | Hek293 (LD50, μM) [2] [µM] | PMBC (LD50, μM) [3] [µM] | SOL [4] [µM] | MIC S1 (S1) [µg/mL] | MIC S26 (S26) [µg/mL] | MIC S4 (S4) [µg/mL] | MIC S2 [5] [µg/mL] | MIC E1 (E1) [µg/mL] | MIC E2 (E2) [µg/mL] | MIC P1 (P1) [µg/mL] | MIC P9 (P9) [µg/mL] | MIC P9B (P9B) [µg/mL] | MIC H3 (H3) [µg/mL] | MIC H4 (H4) [µg/mL] | RBCL (IC50, μM) [1]
CCCCCCCCCCCCC/C(O)=C1\C(=O)[C@@H]2CCCC(=O)N2C1=O [22b] | > 100 | > 100 | Active | 90.9 | >90.9 | 38 to 75 | – | – | – | – | – | – | – | – | – | – | – | –
CCCCCCCCCCCC(O)=C1C(=O)C(CCSC)N(C(C)=O)C1=O (stereo not shown) [24b] | 25 | – | – | 30.3 | 90.9 | >300 | 0.25 (≈ 0.629 µM) | 2 (≈ 5.03 µM) | 1 (≈ 2.52 µM) | 1 (≈ 2.52 µM) | <0.06 | <0.06 | <0.06 | <0.06 | 0.5 (≈ 1.26 µM) | 2 (≈ 5.03 µM) | 2 (≈ 5.03 µM) | –
CCCCCCCC(O)=C1C(=O)C(CCSC)N(C(=O)C2CCCCC2)C1=O (stereo not shown) [24e] | – | > 100 | Inactive^d | >90.9 | >90.9 | >300 | 0.5 (≈ 1.22 µM) | 1 (≈ 2.44 µM) | 2 (≈ 4.88 µM) | 0.5 (≈ 1.22 µM) | 0.25 (≈ 0.61 µM) | 0.5 (≈ 1.22 µM) | 0.12 (≈ 0.293 µM) | 0.12 (≈ 0.293 µM) | 1 (≈ 2.44 µM) | 16 (≈ 39.1 µM) | 2 (≈ 4.88 µM) | –
CCCCCC(O)=C1C(=O)C(CCSC)N(C(=O)CC(C)CC(C)(C)C)C1=O (stereo not shown) [24i] | 33 | > 100 | – | 10.1 | 30.3 | >300 | 0.25 (≈ 0.607 µM) | 1 (≈ 2.43 µM) | 0.5 (≈ 1.21 µM) | 0.5 (≈ 1.21 µM) | 0.5 (≈ 1.21 µM) | 0.25 (≈ 0.607 µM) | 0.25 (≈ 0.607 µM) | 0.25 (≈ 0.607 µM) | 2 (≈ 4.86 µM) | 8 (≈ 19.4 µM) | 2 (≈ 4.86 µM) | Active
CCCCCCCC(O)=C1C(=O)C(CCSC)N(C(=O)CC(C)CC(C)(C)C)C1=O (stereo not shown) [24j] | 19 | > 100 | Active | 10.1 | 30.3 | >300 | 0.5 (≈ 1.14 µM) | 1 (≈ 2.27 µM) | 0.5 (≈ 1.14 µM) | 0.5 (≈ 1.14 µM) | 0.25 (≈ 0.569 µM) | 0.25 (≈ 0.569 µM) | 0.12 (≈ 0.273 µM) | 0.12 (≈ 0.273 µM) | 4 (≈ 9.1 µM) | >64 | 2 (≈ 4.55 µM) | –
CCCCCCCCCC(O)=C1C(=O)C(CCSC)N(C(=O)CC(C)CC(C)(C)C)C1=O (stereo not shown) [24k] | – | 68.8 | Active | 10.1 | 90.9 | >300 | 0.5 (≈ 1.07 µM) | 1 (≈ 2.14 µM) | 0.5 (≈ 1.07 µM) | 0.5 (≈ 1.07 µM) | 0.5 (≈ 1.07 µM) | 0.25 (≈ 0.535 µM) | 0.25 (≈ 0.535 µM) | 0.12 (≈ 0.257 µM) | 2 (≈ 4.28 µM) | >64 | 64 (≈ 137 µM) | –
CCCCCCCCCC(O)=C1C(=O)C(CCSC)N(C(=O)Cc2cccs2)C1=O (stereo not shown) [24m] | – | > 100 | Active | 30.3 | 90.9 | >300 | 2 (≈ 4.43 µM) | 4 (≈ 8.86 µM) | 2 (≈ 4.43 µM) | 2 (≈ 4.43 µM) | 2 (≈ 4.43 µM) | 0.5 (≈ 1.11 µM) | 0.5 (≈ 1.11 µM) | 0.25 (≈ 0.554 µM) | 4 (≈ 8.86 µM) | 16 (≈ 35.4 µM) | 4 (≈ 8.86 µM) | –

— patent publication US9765069B2, “Antimicrobial compounds” (OXFORD UNIVERSITY INNOVATION LIMITED, priority 2012, dated 2017)
